PMC11357256, “Selectivity Screening and Structure–Cytotoxic Activity Observations of Selected Oleanolic Acid (OA)-Type Saponins from the Amaranthaceae Family on a Wiade Panel of Human Cancer Cell Lines” (Molecules, 2024)
Like-named read-outs stand apart in the source and are kept apart here.

Experiments:
Du-145 = assay: MTT cell viability assay, Du-145 prostate carcinoma cells; type: cell-based; conditions: Homo sapiens
From the text: (§1) Cell lines used in the study were grouped as follows: skin panel (melanomas: HTB140, derived from metastatic site: lymph node, ATCC Hs 294 T; malignant A375, ATCC CRL-1619; stage I primary WM793, RRID:CVCL 8787; skin keratinocytes HaCaT); prostate panel (prostate carcinomas: Du145, derived from metastatic site: brain, ATCC HTB-81; grade IV PC3, derived from metastatic site: bone, ATCC CRL-1435, LNCaP, derived from the metastatic site: lymph node, ATCC CRL-1740; prostate epithelial, PNT2, ECACC 95012613); gastrointestinal panel (colorectal adenocarcinomas: Caco2, ATCC HTB-37, HT29, ATCC HTB-38, DLD-1, ATCC CCL-221, HCT116, ATCC CCL-247, and colon epithelial cells CCD 841 CoN, ATCC CRL-1790; hepatocellular carcinoma HepG2, ATCC HB-8065); thyroid panel (follicular thyroid carcinoma FTC133, ECACC 9406090, undifferentiated thyroid carcinoma 8505C, ECACC 94090184, papillary thyroid carcinoma TPC-1, SCC147, normal thyroid follicular epithelial Nthy-ori 3–1, ECACC 90011609); and breast panel (ER-positive breast adenocarcinoma MCF7, ATCC HTB-22; ER-negative breast adenocarcinoma MDA-MB-231, ATCC HTB-26; breast epithelial MCF10A, ATCC CRL-10317). Cells were grown under standard conditions (37 °C, 5% CO2, relative humidity), and culture media (DMEM/F12 for PNT2, WM 793, HT29, PC3, FTC133, 8505 C, MDA-MB-231, TPC-1; DMEM Low Glucose for DU145; DMEM High Glucose for HTB140, A375, HaCaT; MEM with NEAA for Caco2 and MCF7; RPMI1640 with sodium pyruvate for LNCaP; DMEM/F12 with 20 ng/mL epidermal growth factor (EGF), 10 μg/mL insulin, 0.5 μg/mL hydrocortisone, 100 ng/mL cholera toxin) for MCF10A) supplemented with 10% fetal bovine serum (FBS) or 5% donor horse serum for MCF10A, and 1% antibiotics solution (10,000 U penicillin and 10 mg streptomycin/mL) […], as previously described. All cell lines, culture media, and supplements were from Sigma-Aldrich (Germany).
(§2) The cells were seeded in 96-well plates (1.5 × 10^4 cells/well). After 24 h, fresh medium was added, containing the tested compounds (0.5–100 μg/mL) and incubated for 24 or 48 h. Cell viability was determined by MTT assay, according to the manufacturer’s instructions, as described previously. Each experiment was performed in triplicate. The absorbance was measured at 570 nm using a Biotek Synergy microplate reader (BioTek Instruments Inc., Winooski, VT, USA). Cell viability was expressed as a percent of control (untreated cells). Doxorubicin was used as a reference drug.

DLD-1 = assay: MTT cell viability assay, DLD-1 colon cancer cells; type: cell-based; conditions: Homo sapiens
From the text: as §1, §2

HepG2 = assay: MTT cell viability assay, HepG2 hepatocellular carcinoma cells; type: cell-based; conditions: Homo sapiens
From the text: as §1, §2

Nthy-ori 3-1 = assay: MTT cell viability assay, Nthy-ori 3-1 normal thyroid epithelial cells; type: cell-based; conditions: Homo sapiens
From the text: as §1, §2

LNCaP = assay: MTT cell viability assay, LNCaP prostate adenocarcinoma cells; type: cell-based; conditions: Homo sapiens
From the text: as §1, §2

HTB-140 = assay: MTT cell viability assay, HTB-140 metastatic melanoma cells; type: cell-based, human; conditions: for IC50: Homo sapiens
From the text: as §1, §2
(§3) The selectivity index (SI) was calculated from the following formula:SI = IC50 of compound in a normal cell line/IC50 of compound in cancer cell line.IC50, half maximal inhibitory concentration, is a concentration required to kill 50% of the cells.

HT29 = assay: MTT cell viability assay, HT29 colorectal adenocarcinoma cells; type: cell-based; conditions: Homo sapiens, HT-29
From the text: as §1, §2

WM793 = assay: MTT cell viability assay, WM793 primary melanoma cells; type: cell-based, human; conditions: for IC50: Homo sapiens
From the text: as §1, §2, §3

PC3 = assay: MTT cell viability assay, PC3 prostate carcinoma cells; type: cell-based; conditions: Homo sapiens, PC-3
From the text: as §1, §2

MCF7 = assay: MTT cell viability assay, MCF7 breast adenocarcinoma cells; type: cell-based; conditions: Homo sapiens
From the text: as §1, §2

HaCaT = assay: MTT cell viability assay, HaCaT keratinocytes; type: cell-based; conditions: Homo sapiens
From the text: as §1, §2

Caco-2 = assay: MTT cell viability assay, Caco-2 colon cancer cells; type: cell-based; conditions: Homo sapiens
From the text: as §1, §2

HCT116 = assay: MTT cell viability assay, HCT116 colon cancer cells; type: cell-based; conditions: Homo sapiens, HCT-116
From the text: as §1, §2

TPC-1 = assay: MTT cell viability assay, TPC-1 papillary thyroid carcinoma cells; type: cell-based, human; conditions: for IC50: Homo sapiens, TPC1
From the text: as §1, §2, §3

A375 = assay: MTT cell viability assay, A375 malignant melanoma cells; type: cell-based, human; conditions: for IC50: Homo sapiens, A-375
From the text: as §1, §2, §3

CCD 841 CoN = assay: MTT cell viability assay, CCD 841 CoN normal colon epithelial cells; type: cell-based; conditions: Homo sapiens
From the text: as §1, §2

FTC133 = assay: MTT cell viability assay, FTC133 follicular thyroid carcinoma cells; type: cell-based, human; conditions: for IC50: Homo sapiens, FTC-133
From the text: as §1, §2, §3

MDA-MB-231 = assay: MTT cell viability assay, MDA-MB-231 breast adenocarcinoma cells; type: cell-based; conditions: Homo sapiens
From the text: as §1, §2

MCF-7 cells = conditions: cited from earlier work

`CC1(C)CCC2(C(=O)O)CCC3(C)C(=CCC4C5(C)CCC(OC6OC(C(=O)O)C(O)C(O)C6O)C(C)(C)C5CCC43C)C2C1` [CE, oleanolic acid-3-O-β-D-glucuronopyranoside] showed an IC50 (Du-145; DU-145, 24 h) of 6.7 µg/mL, an IC50 (Du-145; DU-145, 48 h) of 4.3 µg/mL and an IC50 (DLD-1; DLD-1, 24 h) of 31.2 µg/mL. For the same compound, the IC50 (DLD-1; DLD-1, 48 h) was 9 µg/mL, the IC50 (HepG2; HepG2, 24 h) was 16.5 µg/mL and the IC50 (HepG2; HepG2, 48 h) was 6.9 µg/mL. It also gave an IC50 (Nthy-ori 3-1; 24 h) of 76 µg/mL, an IC50 (Nthy-ori 3-1; 48 h) of 30.1 µg/mL and an IC50 (LNCaP; 24 h) greater than 100 µg/mL. The IC50 (LNCaP; 48 h) was greater than 100 µg/mL, the IC50 (HTB-140; HTB-140, 24 h) was 2.8 µg/mL and the IC50 (HTB-140; HTB-140, 48 h) was 1.7 µg/mL. For the same compound, the “Selectivity Index (SI)” value (HTB-140; IC50 HaCaT / IC50 HTB-140, 24 h) was 1.8, the “Selectivity Index (SI)” value (HTB-140; IC50 HaCaT / IC50 HTB-140, 48 h) was 1.1 and the IC50 (HT29; HT29, 24 h) was 4.5 µg/mL. For the same compound, the IC50 (HT29; HT29, 48 h) was 2 µg/mL, the IC50 (WM793; WM793, 24 h) was 2.4 µg/mL and the IC50 (WM793; WM793, 48 h) was 1.2 µg/mL. For the same compound, the “Selectivity Index (SI)” value (WM793; IC50 HaCaT / IC50 WM793, 24 h) was 2.1, the “Selectivity Index (SI)” value (WM793; IC50 HaCaT / IC50 WM793, 48 h) was 1.6 and the IC50 (PC3; PC3, 24 h) was 5.6 µg/mL. It also gave an IC50 (PC3; PC3, 48 h) of 2.9 µg/mL, an IC50 (MCF7; MCF7, 24 h) greater than 100 µg/mL and an IC50 (MCF7; MCF7, 48 h) of 39.5 µg/mL. For the same compound, the IC50 (HaCaT; 24 h) was 5.1 µg/mL, the IC50 (HaCaT; 48 h) was 2 µg/mL and the IC50 (Caco-2; Caco-2, 24 h) was 2 µg/mL. For the same compound, the IC50 (Caco-2; Caco-2, 48 h) was 1 µg/mL, the IC50 (HCT116; HCT116, 24 h) was 14.3 µg/mL and the IC50 (HCT116; HCT116, 48 h) was 10.2 µg/mL. For the same compound, the IC50 (TPC-1; TPC-1, 24 h) was 8.5 µg/mL, the IC50 (TPC-1; TPC-1, 48 h) was 5.8 µg/mL and the “Selectivity Index (SI)” value (TPC-1; IC50 Nthy-ori 3-1 / IC50 TPC-1, 24 h) was 9.0. The “Selectivity Index (SI)” value (TPC-1; IC50 Nthy-ori 3-1 / IC50 TPC-1, 48 h) was 5.1, the IC50 (A375; A375, 24 h) was 1.8 µg/mL and the IC50 (A375; A375, 48 h) was 0.8 µg/mL. For the same compound, the “Selectivity Index (SI)” value (A375; IC50 HaCaT / IC50 A375, 24 h) was 2.9, the “Selectivity Index (SI)” value (A375; IC50 HaCaT / IC50 A375, 48 h) was 2.6 and the IC50 (CCD 841 CoN; 24 h) was greater than 100 µg/mL. For the same compound, the IC50 (CCD 841 CoN; 48 h) was greater than 100 µg/mL, the IC50 (FTC133; FTC133, 24 h) was 1.9 µg/mL and the IC50 (FTC133; FTC133, 48 h) was 1.1 µg/mL. The “Selectivity Index (SI)” value (FTC133; IC50 Nthy-ori 3-1 / IC50 FTC133, 24 h) was 38.6, the “Selectivity Index (SI)” value (FTC133; IC50 Nthy-ori 3-1 / IC50 FTC133, 48 h) was 28.1 and the IC50 (MDA-MB-231; MDA-MB-231, 24 h) was 69.6 µg/mL. For the same compound, the IC50 (MDA-MB-231; MDA-MB-231, 48 h) was 23.5 µg/mL, the IC50 (MCF-7 cells; 48 h, ref 13) was 35.4 µg/mL and the IC50 (MCF-7 cells; 48 h, ref 14, read-out: IC50) was 19.7 µM. The IC50 (MCF-7 cells; 72 h, read-out: IC50) was 13.4 µM.
